Assay results: US20100008971A1, “CHEWING COMPOSITION COMPRISING COENZYME Q10” (SAN-EI GEN F.F.I., INC., priority 2006, published 2010)

Key:
[1] = Release of Coenzyme Q10 into saliva from sugar-coated gums with the sample in the sugar coating, chewed by four subjects; type: in vivo, human; conditions: sugar-coated gum, 0.020 wt % CoQ10 in gum, one piece (1.5 g) chewed 5 min, 60 times/min
Protocol: Sugar-coated gums (1.5 g/tablet) each comprising Coenzyme Q10 in the sugar coating were prepared in the manner described below such that the content of Coenzyme Q10 in 100 g of the sugar-coated gum was 20 mg.
A gum base (trade name: Gum Base LT2, manufactured by Lotte, Co., Ltd.) was kneaded at 70° C. with xylitol, corn syrup and glycerol, and after the addition of Lemon Oil No. 2451* (flavoring agent), the mixture was cooled to room temperature and molded to a tablet shape.
Maltitol and gum arabic were added to water and dissolved by heating. After cooling the mixture to room temperature, one each of Sample 1, 2, 4, 5 or 6 was added and mixed homogeneously.
The sugar solutions thus obtained were each spray dried over the gum centers using a coating pan and dried. The proportion of the sugar-coating layer was 50 parts by weight to 100 parts by weight of the gum center. […]
Each type of the sugar-coated gums prepared above were sampled in a precise amount of 6 g (total weight of four pieces), and one piece each of these gums was chewed by four subjects under the same conditions as in Test Example 1. […] The samples were subjected to HPLC under the same conditions to determine the contents of Coenzyme Q10 in the chewed gums, and then the release of Coenzyme Q10 into saliva from these gums was evaluated as in Test Example 1.

[2] = Release of Coenzyme Q10 into saliva from stick gums chewed by four subjects (HPLC of chewed gum); type: in vivo, human; conditions: 0.048 wt % CoQ10 in gum, 1 g chewed 5 min, 60 times/min
Protocol: Using one of Samples 1 to 5 obtained above, raw materials were blended according to the formulation shown below such that the content of Coenzyme Q10 in 100 g of the resulting stick gum would be 48 mg, and each mixture was molded to form a stick gum. Specific procedures are as follows: A gum base was first kneaded at 70° C. with sugar, corn syrup and glycerol, and the mixture was blended with Lemon Oil No. 2451* (flavoring agent) and San Yellow^‡ No. 3* (colorant). One each of Samples 1, 2, 3, 4 or 5 was then added to the resulting mixture. After cooling to room temperature, each material was rolled and molded to prepare a chewing gum (stick gum). The gum base used in the following formulation was purchased from Lotte, Co., Ltd. (Gum Base LT1).
Each type of the stick gums thus prepared was sampled in a precise amount of 4 g, and placed in a stoppered centrifuge tube. To the tube was added 10 ml of a 20% (v/v) tetrahydrofuran aqueous solution. The tube was then equipped with a Dimroth condenser, and the solution was refluxed, while occasionally mixing it by shaking, in a hot bath at 82° C. for 30 minutes. The refluxed solution was then cooled to room temperature, and 15 ml of diethyl ether was added, followed by extraction with shaking for 10 minutes. […]
The proportion of Coenzyme Q10 released into saliva was determined based on Equation 1: […]

Release (%) of Coenzyme Q10 into saliva [1]: 30.0%
Release (%) of Coenzyme Q10 into saliva [2]: 0%
Structure (SMILES): COC1=C(OC)C(=O)C(C/C=C(\C)CC/C=C(\C)CC/C=C(\C)CC/C=C(\C)CC/C=C(\C)CC/C=C(\C)CC/C=C(\C)CC/C=C(\C)CC/C=C(\C)CCC=C(C)C)=C(C)C1=O [Sample 5, Coenzyme Q10]
